These results are taken from patent publication US20170196868A1, “METHODS AND COMPOSITIONS FOR TREATMENT OF HER-POSITIVE CANCERS” (UNIVERSITY OF SOUTH CAROLINA, priority 2014, published 2017).

Values joined by “and” are separate entries in the source; they are usually repeats but may differ in a detail not shown here. Equal entries are not always repeated.

Format in all cases: cell-based
The subject of assay [1] is BT474 breast cancer cells. As to the kind of experiment: Emergence of erlotinib resistance, continuous treatment for 35 days. As for the experimental part: We conducted a similar experiment with BT474 breast cancer cells continuously treated with erlotinib, an inhibitor of EGFR, another member of the same HER family as HER2/Neu. 600,000 cells per T75 flask were plated in the continuous presence of […] erlotinib, […] Senexin B, or a combination of both (changing drug-containing media twice a week). […] The macroscopic and microscopic views of the corresponding samples after 35 days of treatment are shown in FIG. 11 and FIG. 12, respectively.

Assay [2] deals with HER2+ colon cancer cell line HT-29. As to the kind of experiment: MTT assay for relative cell number, drug combination analysis (CompuSyn CI). The following applies: for response of cells to drug alone: single agent. As for the experimental part:
(§1) FIG. 1 presents an analysis of the nature of the interaction between CDK8/19 inhibitor Senexin B (a.k.a. SNX2-1-165) developed and owned by Senex Biotechnology, Inc.) and a HER2-specific monoclonal antibody (a biosimilar of trastuzumab from Biocad, Strelna, Russia) in BT474, a ER+HER2+ breast cancer cell line. In these experiments, 2000 cells/well were plated in each well of 96 well plates. […] Treatment was repeated after 3 days, and the MTT assay for relative cell number was performed after the total of 7 days of treatment. The Combination Index (CI) values were calculated using CompuSyn® (www.combosyn.com), a web tool based on the principles described in Chou (2006). […] Similar analysis was conducted for the interaction between Senexin B and lapatinib (LAP), a small-molecule inhibitor of both HER2 and EGFR, in the same cells; using a SNXB:LAP molar ratio of 10:1.
(§2) To determine if CDK8/19 inhibition affects the response of HER2+ colon cancer cells to lapatinib, we conducted the same type of analysis as above on two HER2+ colon cancer cell lines, HCT-116 and HT-29 (both plated at 1500 cells per well).
(Tetrazolium dyes change colour on reduction, which living cells bring about.)

Assay [3] has as its system HER2+ colon cancer cell line HCT-116. The description is as above. The settings on record: for response of cells to drug alone: single agent. As to the method:
as §1, §2

Assay [4] relates to BT474 (ER+HER2+) breast cancer cell line. As to the kind of experiment: Emergence of lapatinib resistance, continuous exposure for 16 weeks, crystal violet staining. The settings on record: for inhibition of cell growth after 1 week of treatment: single agent, 2.5 μM Senexin B or 250 nM lapatinib. The text has this: (§3) A major problem for chemotherapy in general and for molecularly targeted drugs in particular is the development of drug resistance. The ability to prevent the development of drug resistance could allow sustained response to targeted drugs and transform the outcome of cancer therapy. Since CDK8 is a key mediator of transcriptional reprogramming (Galbraith et al., 2010, 2013), we hypothesized that CDK8 inhibition may prevent the induction of transcription that may be associated with epigenetic acquisition of drug resistance. To test this hypothesis, we plated BT474 (ER+HER2+) and SKBR3 (ER-HER2+) breast cancer cell lines at 250,000 cells per T25 flask, and the cells were continuously exposed to 2.5 μM Senexin B, 250 nM lapatinib, alone and in combination, for a period of 16 weeks, changing drug-containing media twice a week. At selected time points, cells in flasks were fixed with methanol:acetic acid and stained with crystal violet. The results for BT474 are shown in FIG. 9 and for SKBR3 in FIG. 10. […] However, by week 4 (in the case of BT474) or week 8 (in the case of SKBR3), the outgrowth of cells treated with lapatinib alone became noticeable compared to cells treated with lapatinib+Senexin B combination.

Assay [5] relates to SKBR3 (ER-HER2+) breast cancer cell line. The description is as above. The settings on record: for inhibition of cell growth after 1 week of treatment: single agent, 2.5 μM Senexin B or 250 nM lapatinib.
Text: as §3

In assay [6] the test system is lapatinib-selected SKBR3-LT cells. As to the kind of experiment: Sensitivity of lapatinib-selected cells versus parental SKBR3, 7-day treatment. The following applies: 7 days.
Assay [7] deals with ER-HER2+ breast cancer cell line JIMT-1. As to the kind of experiment: MTT assay for relative cell number, drug combination analysis (CompuSyn CI). As to the method:
(§4) In these experiments, 2000 cells/well were plated in each well of 96 well plates. […] Treatment was repeated after 3 days, and the MTT assay for relative cell number was performed after the total of 7 days of treatment. The Combination Index (CI) values were calculated using CompuSyn® (www.combosyn.com), a web tool based on the principles described in Chou (2006).
(§5) The same analysis as above was conducted in ER-HER2+ breast cancer cell line HCC-1419 which, despite high levels of HER2, is intrinsically resistant to trastuzumab but sensitive to lapatinib; this pattern of resistance has been associated with activated phosphoinositide 3-kinase/AKT signaling (O'Brien et al., 2010). We also analyzed ER-HER2+ breast cancer cell line JIMT-1, which is intrinsically resistant to both trastuzumab and lapatinib.

The test system of assay [8] is ER-HER2+ cell line SKBR3. The description is as above. The following applies: Senexin B + lapatinib; three experiments. As to the method: as §1
The same analysis was then conducted using an ER-HER2+ cell line SKBR3 (cells were plated at 1,500 cells per well).

For assay [9], the system named is ER-HER2+ breast cancer cell line HCC-1419. The description is as above. As for the experimental part: as §4, §5
Assay [10] deals with BT474, a ER+HER2+ breast cancer cell line. The description is as above. As to the method: as §1
Where [11] appears, read: 250 nM lapatinib alone, compared to lapatinib+Senexin B combination.
[12] abbreviates: combination of Senexin B and lapatinib.
[13] abbreviates: combination of 250 nM lapatinib and 2.5 μM Senexin B.
[14] abbreviates: Senexin B + trastuzumab biosimilar (TRAST).

As to `C#Cc1cccc(Nc2ncnc3cc(OCCOC)c(OCCOC)cc23)c1` [erlotinib], in assay [1] (10 mM erlotinib alone), the “emergence of resistant colonies after 35 days of treatment” value is “erlotinib-resistant colonies emerged” and the “initial effect on cell growth” value was “initially inhibited cell growth”.

As to `CS(=O)(=O)CCNCc1ccc(-c2ccc3ncnc(Nc4ccc(OCc5cccc(F)c5)c(Cl)c4)c3c2)o1` [lapatinib], the “response of cells to drug alone” value in assay [2] was “weak response”; in assay [3], “weak response”; in assay [7] (single agent), “resistant”. Further, the “cell growth after 16 weeks of continuous treatment” value in [4] (250 nM lapatinib alone) and in [5] (250 nM lapatinib alone) was “actively proliferating” throughout. Moreover, the “time by which outgrowth of treated cells became noticeable” value was no more than 4 week in assay [4] (setting [11]) and no more than 8 week in assay [5] (setting [11]). Further, the “inhibition of cell growth after 1 week of treatment” value in assay [4] and in assay [5] was “extremely effective” throughout. For the same compound, the “sensitivity of SKBR3-LT relative to SKBR3” value in [6] (single agent) is “less sensitive”.

Consider `CN1CCN(C(=O)c2ccc3cc(CCNc4ncnc5ccc(C#N)cc45)ccc3c2)CC1` [Senexin B], for which the “emergence of resistant colonies after 35 days of treatment” value in [1] (combination of 10 mM erlotinib and 1 mM Senexin B) is listed as “prevented the emergence of resistance”. Moreover, the “CI (Combination Index)” value in [2] (Senexin B + lapatinib) came out at 0.314; in assay [3] (Senexin B + lapatinib), 0.647; in assay [9] (Senexin B + lapatinib), 0.64; in [9] (setting [14]) it was 0.45. Moreover, the “response of cells to combination” value in assay [2] (setting [12]) and in assay [3] (setting [12]) was “significant response” each time. The “response of cells to drug alone” value in assay [2] and in assay [3] was “weak response” each time. The “cell growth after 16 weeks of continuous treatment” value in assay [4] (setting [13]) and in assay [5] (setting [13]) was “did not grow” throughout. The “inhibition of cell growth after 1 week of treatment” value in [4] and in assay [5] was “limited effect” each time. The “sensitivity of SKBR3-LT relative to SKBR3” value in assay [6] (Senexin B combination with lapatinib, fixed ratio) is recorded as “essentially unchanged”; in assay [6] (Senexin B combination with trastuzumab biosimilar, fixed ratio), “essentially unchanged”; in assay [6] (single agent) it was “essentially unchanged”. Also, the “IC50 CI (Combination Index)” value is 0.611 and 0.674 and 0.470 in [8]; 0.39 in assay [7] (Senexin B + lapatinib); 0.04 in [7] (setting [14]); 0.512 and 0.728 in [10] (Senexin B + lapatinib (LAP), SNXB:LAP molar ratio 10:1, separate experiments). For the same compound, in [10] (Senexin B (SNXB) + trastuzumab biosimilar (HER), fixed ratio 100 nM SNXB:1 μg/ml HER, 7 days, first experiment), the “IC75 CI (Combination Index)” value was determined as 0.019.
